Publication PMC6760013, “Synthesis and Inhibition Evaluation of New Benzyltetrahydroprotoberberine Alkaloids Designed as Acetylcholinesterase Inhibitors” (Frontiers in Chemistry, 2019)

Assays:
AChE = tested on: AChE; set-up: method as in Loizzo et al., 2008; settings: AChE inhibition; ref Loizzo et al., 2008; cited from earlier work
[1] = molecular target: T1, AChE from Electrophorus electricus (eelAChE) type VI-S (Electrophorus electricus, UniProt O42275); assay: biochemical; settings: for mechanism of inhibition: double-reciprocal (Lineweaver-Burk) plots; for IC50 / Ki: eelAChE-ICER; for IC50: 20 μL ACh stock 500 μM in 100 μL reaction mixture, non-linear regression; for Ki: ACh 10 to 150 μM, inhibitor 0, 10, 50 and 75 μM, Lineweaver-Burk replot, read-out: Ki (steady-state inhibition constant); for inhibition: pH 8, 10 μL of 1.0 mM compound stock in 100 μL reaction mixture, read-out: % Inhibition eelAChE-ICER
T1 construct: purchased Sigma-Aldrich type VI-S
Experimental: AChE from Electrophorus electricus (type VI-S) was immobilized in a fused-silica capillary tube (eelAChE-ICER) according to a previously reported protocol (Vanzolini et al., [2013]). An enzyme solution containing 2 units/mL eelAChE was used in the immobilization procedure. The LC-MS system was set up for the eelAChE-ICER as previously described (Vanzolini et al., [2013]). The mobile phase (15 mM ammonium acetate solution, pH 8.0) was infused by pump 1 at a flow rate of 50 μL/min and pump 2 delivered acetonitrile after the eelAChE-ICER at a flow rate of 50 μL/min. IT-MS parameters were: 3,713 V capillary voltage, 500 V end plate voltage, […] drying gas, 300°C drying temperature and 30 psi nebulizer. In addition, ACh ([M+H]^+ m/z 146) and Ch ([M+H]^+ m/z 104), were analyzed by MS operating in the manual MS^n mode under positive ionization (scan 50–550 m/z). Enzymatic activity was quantified using a Ch standard external calibration curve prepared in 15 mM ammonium acetate solution, pH 8.0 with the final concentration ranging from 5 to 350 μM. An aliquot (10 μL) of each solution was injected in triplicate into the system using an empty fused silica capillary. The calibration curve was obtained by plotting the Ch [M+H]^+ m/z 104 area against the injected Ch concentration.
Stock solutions of each compound were prepared in methanol at 1.0 mM. The enzymatic activity of eelAChE-ICER was measured in the presence and absence of each compound. Reactions mixtures were prepared by mixing 20 μL of ACh stock solution (350 μM, in 15mM ammonium acetate solution, pH 5.0) with 10 μL of methanol or stock solution of compounds (1.0 mM) and 70 μL ammonium acetate solution (15mM, pH 8.0). Each reaction mixture (10 μL) was injected into the LC-MS system. The percentage of inhibition (%I) was calculated by comparing the product peak area in the presence of tested compound with positive control (absence of inhibitors).
Final volumes were completed with 70 μL ammonium acetate solution (15mM, pH 8.0) and each reaction mixture (10 μL) was injected into the LC-MS system. The inhibition curve was obtained for each sample by plotting the percentage of inhibition vs. each corresponding inhibitor concentration, and the IC50 values were achieved by non-linear regression analysis using GraphPad Prism 5 software.
For this purpose, the eelAChE-ICER activity was evaluated under different concentrations of ACh (10 to 150 μM) and at the fixed concentration of derivative 1a and 1b (0, 10, 50, and 75 μM). Lineweaver-Burk plots were used to determine the action mechanism for the inhibitors.
A linear replot was obtained, and the division quotient between the linear and angular coefficients provided the Ki values.

[2] = 20 μL ACh stock 350 μM, ammonium acetate 15 mM pH 8.0

T1 sequence (O42275 24-633): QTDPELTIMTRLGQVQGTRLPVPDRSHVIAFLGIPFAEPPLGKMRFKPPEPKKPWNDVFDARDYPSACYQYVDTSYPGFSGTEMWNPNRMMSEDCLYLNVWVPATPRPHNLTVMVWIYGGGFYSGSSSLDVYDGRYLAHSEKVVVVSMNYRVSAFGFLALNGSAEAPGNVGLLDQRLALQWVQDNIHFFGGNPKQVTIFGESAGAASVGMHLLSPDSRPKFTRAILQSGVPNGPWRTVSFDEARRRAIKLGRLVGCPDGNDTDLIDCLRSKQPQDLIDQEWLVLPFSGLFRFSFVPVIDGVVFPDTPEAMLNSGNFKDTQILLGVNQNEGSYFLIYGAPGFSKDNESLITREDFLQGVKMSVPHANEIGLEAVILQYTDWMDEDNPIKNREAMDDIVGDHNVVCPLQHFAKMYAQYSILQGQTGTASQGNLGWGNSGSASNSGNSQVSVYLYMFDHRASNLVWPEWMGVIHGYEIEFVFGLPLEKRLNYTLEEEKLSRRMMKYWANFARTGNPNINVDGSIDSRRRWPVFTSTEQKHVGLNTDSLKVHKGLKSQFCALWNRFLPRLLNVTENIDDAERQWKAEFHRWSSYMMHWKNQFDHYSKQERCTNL

Q: For COc1cc2c(cc1O)-c1cc3ccc(O)c(OC)c3c[n+]1CC2 [stepharanine], which IC50 (AChE) is on record?
A: 14.1 µM

Q: Which mechanism of inhibition [1] does the source give for COc1cc2c(cc1O)[C@@H]1Cc3ccc(O)c(OC)c3C[N@+]1(Cc1ccccc1)CC2 [1a, (7R,13aS)-7-benzylstepholidine] here?
A: non-competitive

Q: What about the IC50 [1] of the same compound?
A: 40.6 ± 1 µM

Q: What about the Ki [1] of the same compound?
A: 11.6 µM

Q: What about the inhibition [1, 2] of the same compound?
A: 90.1 ± 2.04%

Q: Which inhibition [1, 2] does the source give for COc1cc2c(cc1OCc1ccccc1)[C@@H]1Cc3ccc(OCc4ccccc4)c(OC)c3CN1CC2 [1e, (S)-O, O-dibenzylstepholidine] here?
A: 43.6 ± 2.54%

Q: For COc1cc2c(cc1O)[C@@H]1Cc3ccc(O)c(OC)c3C[N@@+]1(Cc1ccccc1)CC2 [1b, (7S,13aS)-7-benzylstepholidine], which mechanism of inhibition [1] is on record?
A: non-competitive

Q: And the IC50 [1]?
A: 51.9 ± 1 µM

Q: And the Ki [1]?
A: 4.7 µM

Q: What about the inhibition [1, 2] of the same compound?
A: 90.5 ± 2.48%

Q: Which inhibition [1, 2] does the source give for COc1cc2c(cc1O)[C@@H]1Cc3ccc(OCc4ccccc4)c(OC)c3CN1CC2 [1d, (S)-10-O-benzylstepholidine] here?
A: 46.3 ± 5.45%

Q: For COc1cc2c(cc1O)C1Cc3ccc(O)c(OC)c3C[N+]1(C)CC2 (stereo not shown) [N-methyl stepholidine], which IC50 (AChE) is on record?
A: 31.3 µM

Q: What does the source list for COc1cc2c(cc1O)[C@@H]1Cc3ccc(O)c(OC)c3CN1CC2 [Stepholidine, stepholidine, reference compound]?
A: % Inhibition eelAChE-ICER ([1]; 10 μL of 1.0 mM compound stock in 100 μL reaction mixture, 20 μL ACh stock 350 μM, ammonium acetate 15 mM pH 8.0): 40.2 ± 1.65%; inhibition [1, 2]: < 50%; IC50 (AChE): > 100 µM

Q: For COc1cc2c(cc1OCc1ccccc1)[C@@H]1Cc3ccc(O)c(OC)c3CN1CC2 [1c, (S)-2-O-benzylstepholidine], which inhibition [1, 2] is on record?
A: 35.2 ± 5.02%
